According to ChEMBL document CHEMBL1148813, “Discovery and characterization of novel, potent, non-peptide parathyroid hormone-1 receptor antagonists” (J Med Chem, 2007):

Key:
[1] = biological target: T1, Parathyroid hormone/parathyroid hormone-related peptide receptor (Homo sapiens, UniProt Q03431); assay: Displacement of [125I]-[Nle,8,18 Tyr34]-hPTH(1-34) from human recombinant PTH1R expressed in HEK293 cells; type: cell-based
T1 sequence (Q03431 whole entry): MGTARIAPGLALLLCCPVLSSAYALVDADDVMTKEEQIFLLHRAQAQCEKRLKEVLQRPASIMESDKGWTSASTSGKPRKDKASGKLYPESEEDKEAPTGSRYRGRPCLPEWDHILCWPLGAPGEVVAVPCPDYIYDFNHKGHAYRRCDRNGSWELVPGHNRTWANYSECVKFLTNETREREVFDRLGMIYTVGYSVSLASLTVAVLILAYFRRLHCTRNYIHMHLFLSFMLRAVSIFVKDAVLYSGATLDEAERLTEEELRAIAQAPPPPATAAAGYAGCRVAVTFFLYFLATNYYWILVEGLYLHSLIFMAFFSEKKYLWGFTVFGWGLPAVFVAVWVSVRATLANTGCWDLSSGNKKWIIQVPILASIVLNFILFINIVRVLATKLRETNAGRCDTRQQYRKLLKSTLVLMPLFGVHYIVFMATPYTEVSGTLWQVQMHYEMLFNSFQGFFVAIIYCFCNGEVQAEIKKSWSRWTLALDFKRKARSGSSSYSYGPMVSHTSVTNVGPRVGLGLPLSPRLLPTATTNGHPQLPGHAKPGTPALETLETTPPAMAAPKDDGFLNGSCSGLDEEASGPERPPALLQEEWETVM

[2] = biological target: T2, Parathyroid hormone/parathyroid hormone-related peptide receptor (Homo sapiens) (UniProt Q03431); assay: Displacement of [125I]-[Nle,8,18 Tyr34]-hPTH(1-34) from human recombinant PTH1R expressed in HEK293 cells at 10 uM; type: cell-based
T2 sequence (whole entry): T1 sequence (Q03431 whole entry)

[3] = biological target: T3, Parathyroid hormone/parathyroid hormone-related peptide receptor (Mus musculus, UniProt P41593); assay: Antagonist activity at mouse wild type PTH1 receptor expressed in MC3T3E1 cells assessed as inhibition of PTHrP (1-34)-stimulated cAMP production at 3 uM; type: functional, cell-based; details: read-out: pA2 (converted)
T3 sequence (P41593 whole entry): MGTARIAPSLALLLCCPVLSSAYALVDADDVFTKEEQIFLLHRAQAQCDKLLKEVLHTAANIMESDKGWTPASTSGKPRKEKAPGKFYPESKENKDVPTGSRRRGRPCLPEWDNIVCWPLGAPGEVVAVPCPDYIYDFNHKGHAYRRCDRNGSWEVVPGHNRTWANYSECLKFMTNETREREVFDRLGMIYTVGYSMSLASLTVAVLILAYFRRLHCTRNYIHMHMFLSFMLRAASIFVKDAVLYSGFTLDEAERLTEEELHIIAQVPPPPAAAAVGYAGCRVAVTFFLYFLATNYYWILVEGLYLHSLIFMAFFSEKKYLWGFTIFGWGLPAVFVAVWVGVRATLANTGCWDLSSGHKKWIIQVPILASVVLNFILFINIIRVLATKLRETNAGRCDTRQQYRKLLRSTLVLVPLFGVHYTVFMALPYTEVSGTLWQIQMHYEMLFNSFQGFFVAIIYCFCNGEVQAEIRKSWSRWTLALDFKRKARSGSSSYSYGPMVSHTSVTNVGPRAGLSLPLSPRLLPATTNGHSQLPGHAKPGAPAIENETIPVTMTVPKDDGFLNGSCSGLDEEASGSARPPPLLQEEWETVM

[4] = biological target: T1, Parathyroid hormone/parathyroid hormone-related peptide receptor; assay: Antagonist activity at human wild type PTH1 receptor expressed in SaOS2 cells assessed as inhibition of PTHrP (1-34)-stimulated cAMP production at 3 uM; type: functional, cell-based, SAOS-2; details: read-out: pA2 (converted)
Homo sapiens = organism: Homo sapiens; assay: Selectivity for human recombinant PTH1 receptor over human recombinant PTH2 receptor
[5] = biological target: T2, Parathyroid hormone/parathyroid hormone-related peptide receptor (Homo sapiens); assay: Antagonist activity at human wild type PTH1 receptor expressed in SaOS2 cells assessed as inhibition of PTHrP (1-34)-stimulated cAMP production; type: functional, cell-based; details: SAOS-2
[6] = biological target: Parathyroid hormone 2 receptor (Homo sapiens) (UniProt P49190); assay: Antagonist activity at human recombinant PTH2 receptor expressed in CHOK1 cells assessed as inhibition of TIP (1-39)-stimulated cAMP production at 10 uM; details: read-out: pA2 (converted)
[7] = biological target: T1, Parathyroid hormone/parathyroid hormone-related peptide receptor; assay: Antagonist activity at human recombinant PTH1 receptor expressed in HEK293 cells assessed as inhibition of PTH(1-34)-stimulated cAMP production; type: functional, cell-based; details: read-out: pA2 (converted)
[8] = biological target: T2, Parathyroid hormone/parathyroid hormone-related peptide receptor (Homo sapiens); assay: Displacement of [125I]-[Nle,8,18 Tyr34]-hPTH(1-34) from human recombinant PTH1R expressed in HEK293 cells at 1 uM; type: cell-based

Sequence of Parathyroid hormone 2 receptor (Homo sapiens) (P49190 whole entry, looked up): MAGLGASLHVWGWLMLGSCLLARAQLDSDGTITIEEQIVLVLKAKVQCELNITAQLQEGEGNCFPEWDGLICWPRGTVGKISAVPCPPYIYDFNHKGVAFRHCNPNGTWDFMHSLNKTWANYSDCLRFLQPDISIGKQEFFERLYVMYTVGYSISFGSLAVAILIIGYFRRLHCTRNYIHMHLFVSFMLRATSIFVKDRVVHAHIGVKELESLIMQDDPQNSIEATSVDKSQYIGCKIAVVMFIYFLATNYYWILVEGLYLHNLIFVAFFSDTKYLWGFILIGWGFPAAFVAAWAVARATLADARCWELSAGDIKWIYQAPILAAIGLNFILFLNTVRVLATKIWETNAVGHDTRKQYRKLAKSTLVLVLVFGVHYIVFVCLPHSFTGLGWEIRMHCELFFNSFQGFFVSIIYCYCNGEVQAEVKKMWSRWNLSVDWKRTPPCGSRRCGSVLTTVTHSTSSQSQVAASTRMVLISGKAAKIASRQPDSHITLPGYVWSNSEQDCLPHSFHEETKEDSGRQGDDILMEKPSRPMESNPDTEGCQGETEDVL

Ki [1]	Structure (SMILES)	further results
112 nM	Cc1ccc2c(c1)N(c1ccc(NC(=O)C(N)C(C)C)cc1)C(=O)N(Cc1ccccc1)N=C2C1CCCCC1 (stereo not given)	–
8.71 nM	Cc1ccc2c(c1)N(c1ccc(NCCc3ncc[nH]3)cc1)C(=O)N(C1COc3ccccc3OC1)N=C2C1CCCCC1	–
380 nM	CC(C)C(N)C(=O)Nc1ccc(N2C(=O)N(Cc3ccccc3)N=C(C3CCCCC3)c3ccccc32)cc1 (stereo not given)	–
2820 nM	N=C(N)Nc1cccc(N2C(=O)N(Cc3ccccc3)N=C(C3CCCCC3)c3ccccc32)c1	–
–	CC(C)C1=NN(Cc2ccccc2)C(=O)N(c2ccc(NC(=N)N)cc2)c2ccccc21	inhibition [2]: 43%
676 nM	NCC(=O)Nc1ccc(N2C(=O)N(Cc3ccccc3)N=C(C3CCCCC3)c3ccccc32)cc1	–
> 100000 nM	O=C(O)c1ccc(N2C(=O)N(Cc3ccccc3)N=C(C3CCCCC3)c3ccccc32)cc1	–
–	N=C(N)Nc1ccc(N2C(=O)N(Cc3ccccc3)N=C(CN3CCCCC3)c3ccccc32)cc1	inhibition [2]: 27%
3.55 nM	Cc1ccc2c(c1)N(c1ccc(NCCc3ncc[nH]3)cc1)C(=O)N(C(C)C)N=C2C1CCCCC1	–
70.8 nM	Cc1ccc2c(c1)N(c1ccc(NC3=NCCN3)cc1)C(=O)N(Cc1ccccc1)N=C2C1CCCCC1	–
0.912 nM	Cc1ccc2c(c1)N(c1ccc(NCCc3ncc[nH]3)cc1)C(=O)N(C1CCc3ccccc3CC1)N=C2C1CCCCC1	–
3.8 nM	Cc1ccc2c(c1)N(c1ccc(NCCc3ncc[nH]3)cc1)C(=O)N(Cc1ccccc1)N=C2C1CCCCC1	–
6.76 nM	Cc1ccc2c(c1)N(c1ccc(NCCc3ncc[nH]3)cc1)C(=O)N(C1CCc3ccccc3CC1)N=C2C1CCOCC1	–
617 nM	Cc1ccc2c(c1)N(c1ccc(NCCc3ncc[nH]3)cc1)C(=O)N(C)N=C2C1CCOCC1	–
562 nM	N=C(N)Nc1ccc(N2C(=O)N(Cc3ccccc3)N=C(CC3CCCCC3)c3ccccc32)cc1	–
708 nM	N=C(N)Nc1ccc(N2C(=O)N(Cc3ccccc3)N=C(C3CCCCC3)c3ccccc32)cc1	–
288 nM	O=C1N(Cc2ccccc2)N=C(C2CCCCC2)c2ccccc2N1c1ccc(NC2=NCCN2)cc1	–
1.82 nM	Cc1cc2c(cc1OCc1ccccc1)C(C1CCCCC1)=NN(C)C(=O)N2c1ccc(NCCc2ncc[nH]2)cc1	–
1.45 nM	Cc1cc2c(cc1NCc1ccccc1)C(C1CCCCC1)=NN(C)C(=O)N2c1ccc(NCCc2ncc[nH]2)cc1	–
6.61 nM	Cc1ccc2c(c1)N(c1ccc(NCCc3ncc[nH]3)cc1)C(=O)N(C1CCOCC1)N=C2C1CCCCC1	–
13.2 nM	Cc1ccc2c(c1)N(c1ccc(NCCc3ncc[nH]3)cc1)C(=O)N(C)N=C2C1CCCCC1	Kb [3]: 513 nM; Kb [4]: 19.5 nM; Selectivity ratio (Homo sapiens): 100; pKb [5]: 7.55; Kb [6]: 2880 nM; Kb [7]: 17 nM
3390 nM	N=C(N)Nc1ccc(N2C(=O)N(Cc3ccccc3)N=C(c3ccccc3)c3ccccc32)cc1	–
83.2 nM	COCCN1N=C(C2CCCCC2)c2ccc(C)cc2N(c2ccc(NCCc3ncc[nH]3)cc2)C1=O	–
933 nM	N=C(N)Nc1ccc(CN2C(=O)N(Cc3ccccc3)N=C(C3CCCCC3)c3ccccc32)cc1	–
–	Nc1ccc(N2C(=O)N(Cc3ccccc3)N=C(C3CCCCC3)c3ccccc32)cc1	inhibition [8]: 39%
6.76 nM	CCCN1N=C(C2CCCCC2)c2ccc(C)cc2N(c2ccc(NCCc3ncc[nH]3)cc2)C1=O	–
50.1 nM	Cc1ccc2c(c1)N(c1ccc(NCc3ncc[nH]3)cc1)C(=O)N(C)N=C2C1CCCCC1	–
20.4 nM	Cc1ccc2c(c1)N(c1ccc(NCCCc3ncc[nH]3)cc1)C(=O)N(C)N=C2C1CCCCC1	–
155 nM	Cc1ccc2c(c1)N(c1ccc(NC(=N)N)cc1)C(=O)N(Cc1ccccc1)N=C2C1CCCCC1	–
